Results as given in patent US9862716B2, “TRKA kinase inhibitors, compositions and methods thereof” (Merck Sharp & Dohme Corp., priority 2014, dated 2018).

These compounds were tested against T1, human TrkA receptor (Homo sapiens, UniProt P04629) (assay: DiscoverX PathHunter TrkA functional assay (NGF-stimulated U2OS cells)). Settings: U2OS cells expressing human TrkA-PK, Shc1-EA and p75NTR; compound 1 h, then NGF at ~80% of maximal response for 3 h; luminescence.
T1 construct: host or cells: U2OS cells (PathHunter cell line)
Type: cell-based

T1 sequence (P04629 33-796): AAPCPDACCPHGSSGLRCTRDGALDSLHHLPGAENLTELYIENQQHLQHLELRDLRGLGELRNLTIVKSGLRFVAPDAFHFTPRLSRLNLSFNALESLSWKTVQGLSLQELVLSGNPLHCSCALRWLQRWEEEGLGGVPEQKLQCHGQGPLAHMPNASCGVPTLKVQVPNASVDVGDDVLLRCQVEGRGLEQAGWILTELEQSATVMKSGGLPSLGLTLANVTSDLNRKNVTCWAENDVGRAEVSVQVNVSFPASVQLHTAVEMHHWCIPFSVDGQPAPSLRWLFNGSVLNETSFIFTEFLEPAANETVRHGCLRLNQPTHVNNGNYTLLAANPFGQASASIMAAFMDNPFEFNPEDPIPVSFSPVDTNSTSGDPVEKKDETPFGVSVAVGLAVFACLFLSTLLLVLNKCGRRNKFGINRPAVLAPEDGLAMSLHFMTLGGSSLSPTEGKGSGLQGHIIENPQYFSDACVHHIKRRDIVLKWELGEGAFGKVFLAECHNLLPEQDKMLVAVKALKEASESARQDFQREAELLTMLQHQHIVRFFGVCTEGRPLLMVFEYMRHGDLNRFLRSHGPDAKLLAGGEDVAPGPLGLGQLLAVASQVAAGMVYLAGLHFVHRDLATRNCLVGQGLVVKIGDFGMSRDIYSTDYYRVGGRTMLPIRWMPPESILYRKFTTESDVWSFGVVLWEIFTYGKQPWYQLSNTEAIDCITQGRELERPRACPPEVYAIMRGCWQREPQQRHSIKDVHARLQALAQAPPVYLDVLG

IC50 [nM]	Structure (SMILES)
1.7	COC(=O)NCCc1ccn2c(NC(=O)c3ccc(C(F)(F)F)c(-c4ccn(C)n4)c3)c(-c3ccccc3)nc2c1 [Compound 104, methyl{2-[3-({[3-(1-methyl-1H-pyrazol-3-yl)-4-(trifluoromethyl)phenyl]carbonyl}amino)-2-phenylimidazo[1,2-a]pyridin-7-yl]ethyl}carbamate]
8.7	NC(=O)c1ccc2[nH]c(-c3ccccc3)c(NC(=O)c3cc(-c4ncccn4)c(C(F)(F)F)cc3F)c2c1 [Compound 92, 3-({[2-fluoro-5-pyrimidin-2-yl-4-(trifluoromethyl)phenyl]carbonyl}amino)-2-phenyl-1H-indole-5-carboxamide]
169	CNCCc1ccn2c(NC(=O)c3ccc(C(F)(F)F)c(-c4ccn(C)n4)c3)c(-c3ccccc3)nc2c1 [Compound 109, N-{7-[2-(methylamino)ethyl]-2-phenylimidazo[1,2-a]pyridin-3-yl}-3-(1-methyl-1H-pyrazol-3-yl)-4-(trifluoromethyl) benzamide]
15	Cn1ccc(-c2cc(C(=O)Nc3c(-c4ccccc4)nc4cc(C5CCCN5)ccn34)ccc2C(F)(F)F)n1 (single isomer, unassigned) [Compound 114, (R or S)-3-(1-methyl-1H-pyrazol-3-yl)-N-(2-phenyl-7-pyrrolidin-2-ylimidazo[1,2-a]pyridin-3-yl)-4-(trifluoromethyl) benzamide]
3.3	CC(O)c1ccn2nc(-c3ccccc3)c(NC(=O)c3ccc(C(F)(F)F)c(-c4ccn(C)n4)c3)c2c1 (single isomer, unassigned) [Compound 98, (R or S)-N-[5-(1-hydroxyethyl)-2-phenylpyrazolo[1,5-a]pyridin-3-yl]-3-(1-methyl-1H-pyrazol-3-yl)-4-(trifluoromethyl) benzamide]

Second part, the compound before the results:

Structure (SMILES)	IC50 [nM]
Cn1ccc(-c2cc(C(=O)Nc3c(-c4ccccc4)nc4cc(C5(O)CC5)ccn34)ccc2C(F)(F)F)n1 [Compound 69, N-[7-(1-hydroxycyclopropyl)-2-phenylimidazo[1,2-a]pyridin-3-yl]-3-(1-methyl-1H-pyrazol-3-yl)-4-(trifluoromethyl) benzamide]	3.4
Cc1nc(-c2nc3ccccn3c2NC(=O)c2ccc(C(F)(F)F)c(-c3ccn(C)n3)c2)cs1 [Compound 19, 3-(1-methyl-1H-pyrazol-3-yl)-N-[2-(2-methyl-1,3-thiazol-4-yl)imidazo[1,2-a]pyridin-3-yl]-4-(trifluoromethyl) benzamide]	14
Cn1ccc(-c2cc(C(=O)Nc3c(-c4ccccc4)nc4ccccn34)c(C#N)cc2C(F)(F)F)n1 [Compound 33, 2-cyano-5-(1-methyl-1H-pyrazol-3-yl)-N-(2-phenylimidazo[1,2-a]pyridin-3-yl)-4-(trifluoromethyl) benzamide]	532
Cn1ccc(-c2cc(C(=O)Nc3c(-c4ccccc4)nc4ncccn34)c(Cl)cc2C(F)(F)F)n1 [Compound 24, 2-chloro-5-(1-methyl-1H-pyrazol-3-yl)-N-(2-phenylimidazo[1,2-a]pyrimidin-3-yl)-4-(trifluoromethyl) benzamide]	2.8
Cn1ccc(-c2cc(C(=O)Nc3c(-c4ccccc4)[nH]c4ccccc34)c(F)cc2C(F)(F)F)n1 [Compound 72, 2-fluoro-5-(1-methyl-1H-pyrazol-3-yl)-N-(2-phenyl-1H-indol-3-yl)-4-(trifluoromethyl) benzamide]	4.1
Cn1ccc(-c2cc(C(=O)Nc3c(-c4ccccc4)nc4cc(C(O)CO)ccn34)ccc2C(F)(F)F)n1 (single isomer, unassigned) [Compound 49, (R or S)-N-[7-(1,2-dihydroxyethyl)-2-phenylimidazo[1,2-a]pyridin-3-yl]-3-(1-methyl-1H-pyrazol-3-yl)-4-(trifluoromethyl) benzamide]	0.51
Cn1ccc(-c2cc(C(=O)Nc3c(-c4ccccn4)nc4ccccn34)ccc2C(F)(F)F)n1 [Compound 5, 3-(1-methyl-1H-pyrazol-3-yl)-N-(2-pyridin-2-ylimidazo[1,2-a]pyridin-3-yl)-4-(trifluoromethyl) benzamide]	12
